# Laboratory results from US20210346317A1, “TREATMENT OF HEMATOPOIETIC STEM CELL TRANSPLANT PATIENTS” (PRIOTHERA LIMITED, priority 2016, published 2021).
# Experiments:
# [1] = system: Recipient C57BL/6 or IDUAKI (B6.129S-Iduatm1.1Kmke/J) mice; experiment: Mouse model of inherited metabolic disease (IMD): HSC engraftment after mild non-myeloablative conditioning; format: in vivo
# Text: Recipient C57BL/6 or IDUAKI (B6.129S-Iduatm1.1Kmke/J) mice were conditioned with a mild non-myeloablative regimen. A limited number of 1×10E3 HSC were transplanted from congenic mice. Groups were either untreated or treated with KRP for 15 days.
# [2] = system: patients undergoing HSCT; experiment: Neutrophil engraftment in patients after allogeneic hematopoietic stem cell transplantation; format: in vivo; conditions: for neutrophil count above baseline: e.g. 2 mg KRP203/per day
# Procedure: Day 1=drug treatment commences (e.g. 2 mg KRP203/per day)
# Day 2 and Day 10: Conditioning was performed as described above (e.g. Mini Seattle or RIC)
# Day 11: transplantation of stem cells from an allogeneic donor is being carried out
# To monitor for engraftment of donor hematopoietic stem cells in recipients, the neutrophil count is measured usually daily. The commonly accepted definition of “day of engraftment” (take) is the first of three consecutive days with a neutrophil count higher than 500 cells per microliter. A neutrophil count of higher than 500 cells per microliter is reached in the below experiment, when the probability of engraftment is 1.0 (100%) versus baseline or higher. The donor origin of these cells is normally confirmed by genomic analyses on day 30.
# [3] = day 56, 1×10E3 HSC from congenic mice, treated for 15 days, vs untreated group
smiles,measurement,setting,value
"NC(CO)(CO)CCc1ccc(Sc2cccc(OCc3ccccc3)c2)cc1Cl [KRP203, 2-amino-2-[4-(3-benzyloxyphenylthio)-2-chlorophenyl]ethyl-propane-1,3-diol]",donor cells in engrafted mice,[1]; [3],more donor cells than the untreated group
same,mice engrafted,[1]; [3],More mice from the KRP203 treated group engrafted
same,engraftment (conclusion),"[1]; non-myeloablative conditions, limited HSC, treatment in the peri-transplant period",augments engraftment
same,Probability of neutrophil engraftment,[2]; Day 0,0.00
same,Probability of neutrophil engraftment,[2]; Day 10,0.00
same,Probability of neutrophil engraftment,[2]; Day 11,0.33
same,neutrophil count above baseline,"[2]; Day 11, control group 11%",33 % above baseline
same,Probability of neutrophil engraftment,[2]; Day 12,0.44
same,Probability of neutrophil engraftment,[2]; Day 13,0.67
same,Probability of neutrophil engraftment,[2]; Day 14,0.89
same,Probability of neutrophil engraftment,[2]; Day 15,1.00
same,neutrophil count above baseline,"[2]; Day 15, control group 48%",100 % above baseline
same,Probability of neutrophil engraftment,[2]; Day 16,1.00
same,Probability of neutrophil engraftment,[2]; Day 17,1.00
same,Probability of neutrophil engraftment,[2]; Day 18,1.00
same,Probability of neutrophil engraftment,[2]; Day 19,1.00
same,Probability of neutrophil engraftment,[2]; Day 20,1.00
same,Probability of neutrophil engraftment,[2]; Day 21,1.00
same,Probability of neutrophil engraftment,[2]; Day 22,1.00
same,Probability of neutrophil engraftment,[2]; Day 23,1.00
same,speed of engraftment vs control group,"[2]; FIG. 1 and Table 1, patients treated with KRP203",engrafted much faster than the control group
